Laboratory results taken from US11045448B2, “Piperidines as covalent menin inhibitors” (THE REGENTS OF THE UNIVERSITY OF MICHIGAN, priority 2017, dated 2021).
Read-outs that look alike come from different tables or passages of the source.

Assays:
MOLM13 = experiment: 7-day proliferation assay (WST-8), MOLM13; format: cell-based; settings: Homo sapiens, MOLM-13, 168 h, 7 days, read-out: IC50 in cell growth inhibition
Description: (§1) The effect of representative Compounds of the Disclosure on cell viability was determined in a 7-day proliferation assay. Cells were maintained in the appropriate culture medium with 10% FBS at 37° C. and an atmosphere of 5% CO2.
(§2) Cells were seeded in 96-well flat bottom (Corning COSTAR, Corning, N.Y., cat #3595) at a density of 2,000-3,000 cells/well in 100 μl of culture medium. Compounds were serially diluted in the appropriate medium, and 100 μl of the diluted compounds were added to the appropriate wells of the cell plate. After the addition of compounds, the cells were incubated at 37° C. in an atmosphere of 5% CO2 for 7 days. Cell viability was determined using the WST (2-(2-methoxy-4-nitrophenyl)-3-(4-nitrophenyl)-5-(2,4-disulfophenyl)-2H-tetrazolium, monosodium salt) Cell Counting-8 Kit (Dojindo Molecular Technologies, Inc., Rockville, Md.) according to the manufacturers' instructions.
(§3) WST-8 reagent was added to each well at a final concentration of 10% (v/v), and then the plates were incubated at 37° C. for 1-2 hours for color development. The absorbance was measured at 450 nm using a SPECTRAmax PLUS plate reader (Molecular Devices, Sunnyvale, Calif.). The readings were normalized to the DMSO-treated cells and the half maximal inhibitory concentration (IC50) was calculated by nonlinear regression (four parameters sigmoid fitted with variable slope, least squares fit, and no constraint) analysis using the GraphPad Prism 5 software (GraphPad Software, La Jolla, Calif.).

K562 (no MLL fusion) = experiment: 7-day proliferation assay (WST-8), K562; format: cell-based; settings: Homo sapiens, 168 h, Table 6, 7 days, read-out: IC50 in cell growth inhibition
Description: as §1, §2
(§4) WST-8 reagent was added to each well at a final concentration of 10% (v/v), and then the plates were incubated at 37° C. for 1-2 hours for color development. The absorbance was measured at 450 nm using a SPECTRAmax PLUS plate reader (Molecular Devices, Sunnyvale, Calif.). […]

[1] = tested on: MEIS1 and HOXA gene expression in MV4;11 cell lines; experiment: MEIS1 and HOXA gene expression by RT-PCR in MV4;11; format: cell-based; settings: for MEIS1 and HOXA gene expression (mRNA levels of MEIS1, HOXA9 and HOXA11): different concentrations
Description: FIG. 4 is a bar graph showing that Cpd. No. 57 suppresses MEIS1 and HOXA gene expression in MV4;11 cell lines. Cells were treated with different concentrations of Cpd. No. 57 for 24 h. mRNA levels of MEIS1, HOXA9 and HOXA11 were determined by RT-PCR. *(p<0.05), **(p<0.01).
FIG. 5 is a bar graph showing that Cpd. No. 57 suppresses MEIS1 and HOXA gene expression in MV4;11 cell lines. Cells were treated with different concentrations of Cpd. No. 57 for 6 h. mRNA levels of MEIS1, HOXA9 and HOXA11 were determined by RT-PCR. *(p<0.05), **(p<0.01).
(§5) No. 57 suppresses MEIS1 and HOXA gene expression in MV4;11 and MOLM13 cell lines.

[2] = tested on: MEIS1 and HOXA gene expression in MOLM13 cell lines; experiment: MEIS1 and HOXA gene expression by RT-PCR in MOLM13; format: cell-based
Description: FIG. 6 is a bar graph showing that Cpd. No. 57 suppresses MEIS1 and HOXA gene expression in MOLM13 cell lines. Cells were treated with different concentrations of Cpd. No. 57 for 24 h. mRNA levels of MEIS1, HOXA9 and HOXA11 were determined by RT-PCR. *(p<0.05), **(p<0.01).
as §5

MV4-11 = experiment: 7-day proliferation assay (WST-8), MV4-11; format: cell-based; settings: Homo sapiens, 168 h, 7 days, read-out: IC50 in cell growth inhibition
Description: as §1, §2, §3

SKM-1 (no MLL fusion) = experiment: 7-day proliferation assay (WST-8), SKM-1; format: cell-based; settings: Homo sapiens, 168 h, Table 6, 7 days, read-out: IC50 in cell growth inhibition
Description: as §1, §2, §4

MOLM-16 (no MLL fusion) = experiment: 7-day proliferation assay (WST-8), MOLM-16; format: cell-based; settings: MOLM16, 168 h, Table 6, 7 days, read-out: IC50 in cell growth inhibition
Description: as §1, §2, §4

MonoMac6 = experiment: 7-day proliferation assay (WST-8), MonoMac6; format: cell-based; settings: Homo sapiens, MONO-MAC-6, 168 h, 7 days, read-out: IC50 in cell growth inhibition
Description: as §1, §2, §3

HL-60 (no MLL fusion) = experiment: 7-day proliferation assay (WST-8), HL-60; format: cell-based; settings: Homo sapiens, 168 h, Table 6, 7 days, read-out: IC50 in cell growth inhibition
Description: as §1, §2, §4

SEM cells = experiment: 7-day proliferation assay (WST-8), SEM; format: cell-based; settings: 7 days, read-out: IC50 in cell growth inhibition
Description: as §1, §2, §3

MOLM-4 (MLL-AF9) = experiment: 7-day proliferation assay (WST-8), MOLM-4; format: cell-based; settings: 168 h, Table 6, 7 days, read-out: IC50 in cell growth inhibition
Description: as §1, §2, §4

RS4-11 = experiment: 7-day proliferation assay (WST-8), RS4-11; format: cell-based; settings: Homo sapiens, 7 days, read-out: IC50 in cell growth inhibition
Description: as §1, §2, §3

menin protein [3] = molecular target: T1, menin protein (Homo sapiens (Human), UniProt O00255); experiment: Fluorescence polarization (FP) competitive binding assay, menin binding affinity; settings: menin protein 4 nM, probe 2 nM, room temperature 30 minutes
T1 sequence (O00255 whole entry): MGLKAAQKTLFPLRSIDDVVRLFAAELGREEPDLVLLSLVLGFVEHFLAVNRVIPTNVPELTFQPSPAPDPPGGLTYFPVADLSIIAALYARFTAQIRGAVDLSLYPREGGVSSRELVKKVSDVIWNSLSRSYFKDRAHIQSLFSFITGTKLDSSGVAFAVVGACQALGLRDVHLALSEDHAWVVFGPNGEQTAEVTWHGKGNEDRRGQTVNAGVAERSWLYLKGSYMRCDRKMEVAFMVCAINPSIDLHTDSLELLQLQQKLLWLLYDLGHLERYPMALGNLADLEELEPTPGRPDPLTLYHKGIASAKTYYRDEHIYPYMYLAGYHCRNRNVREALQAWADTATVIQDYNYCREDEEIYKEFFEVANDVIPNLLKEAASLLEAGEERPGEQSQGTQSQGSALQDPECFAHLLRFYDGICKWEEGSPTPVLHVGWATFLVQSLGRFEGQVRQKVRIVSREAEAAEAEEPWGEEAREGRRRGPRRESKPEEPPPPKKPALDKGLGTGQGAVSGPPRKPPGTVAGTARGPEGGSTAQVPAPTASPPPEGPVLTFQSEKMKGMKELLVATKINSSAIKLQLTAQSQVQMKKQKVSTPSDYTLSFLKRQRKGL
How it was run: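 FAM-MM2, a FAM-labelled MLL1-peptide probe (2 nM), was preincubated with menin (4 nM) in PBS with 0.02% bovine γ-globulin, 4% DMSO and 0.01% Triton X-100. Compounds were added for 30 min at room temperature with shaking. FP (mP) was read at ex 485/em 530, and IC50 came from nonlinear regression of the competition curves.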

menin protein [4] = molecular target: T1, menin protein; experiment: Covalent binding to menin protein by mass spectroscopy; settings: incubated with recombinant human menin, compared to menin apo
Description: No. 1 and Cpd. […] Recombinant human menin protein was incubated with Cpd. No. 1 or Cpd. No. 3 and compared to menin protein alone (Menin apo).

MOLM14 = experiment: 7-day proliferation assay (WST-8), MOLM14; format: cell-based; settings: Homo sapiens, MOLM-14, 168 h; Table 4; MOLM14, AML, MLL/AF9; 7 days; read-out: IC50 in cell growth inhibition
Description: as §1, §2, §3

SMILES: COC(=O)N[C@H]1CCC[C@@H]1[C@](C#N)(c1cccc(F)c1)C1CCN(CC2CN(c3ccc(S(=O)(=O)C4CN(C(=O)/C=C/CN(C)C)C4)cc3)C2)CC1 [Cpd. No. 57, methyl ((1S,2R)-2-((S)-cyano(1-((1-(4-((1-((E)-4-(dimethylamino)but-2-enoyl)azetidin-3-yl)sulfonyl)phenyl)azetidin-3-yl)methyl)piperidin-4-yl)(3-fluorophenyl)methyl)cyclopentyl)carbamate]
- IC50 (MOLM13; Table 5, MOLM13): 0.0154 µM
- IC50 (K562 (no MLL fusion)): 4.5 µM
- MEIS1 and HOXA gene expression (mRNA levels of MEIS1, HOXA9 and HOXA11) ([1]; MV4;11, 6 h, RT-PCR (FIG. 5)): suppresses
- MEIS1 and HOXA gene expression (mRNA levels of MEIS1, HOXA9 and HOXA11) ([1]; MV4;11, 24 h, RT-PCR (FIG. 4)): suppresses
- MEIS1 and HOXA gene expression ([1]; MV4;11, summary sentence for FIG. 4, FIG. 5): suppresses
- MEIS1 and HOXA gene expression (mRNA levels of MEIS1, HOXA9 and HOXA11) ([2]; MOLM13, 24 h, different concentrations, RT-PCR (FIG. 6)): suppresses
- MEIS1 and HOXA gene expression ([2]; MOLM13, summary sentence for FIG. 6): suppresses
- IC50 (MV4-11; Table 5, MV4-11): 0.0023 µM
- IC50 (SKM-1 (no MLL fusion)): 0.9 µM
- IC50 (MOLM-16 (no MLL fusion)): 6.5 µM
- IC50 (MonoMac6; Table 6, MonoMac6 (MLL-AF9)): 0.0103 µM
- IC50 (HL-60 (no MLL fusion)): 1.6 µM
- IC50 (SEM cells; 168 h, Table 6, SEM (MLL-AF4)): 0.018 µM
- IC50 (MOLM-4 (MLL-AF9)): 0.0313 µM
- IC50 (RS4-11; RS4-11, 168 h, Table 6): 0.0094 µM
- IC50 (menin protein [3]): 0.003 µM

SMILES: C=CC(=O)N1CC(S(=O)(=O)c2ccc(N3CC(CN4CCC([C@@](C#N)(c5cccc(F)c5)[C@H]5CCC[C@@H]5OC(=O)NC)CC4)C3)cc2)C1 [Cpd. No. 1, (1S,2R)-2-((S)-(1-((1-(4-((1-acryloylazetidin-3-yl)sulfonyl)phenyl)azetidin-3-yl)methyl)piperidin-4-yl)(cyano)(3-fluorophenyl)methyl)cyclopentyl methylcarbamate]
- IC50 (MOLM13; Table 4, MOLM13, AML, MLL/AF9): 0.0272 µM
- IC50 (MV4-11; Table 4, MV4-11, AML, MLL/AF4): 0.0043 µM
- Covalent binding with menin protein (mass spectroscopy) (menin protein [4]): covalently bind with menin protein
- IC50 (MonoMac6; Table 4, MonoMac6, AML, MLL/AF9): 0.084 µM
- IC50 (MOLM14): 0.041 µM
- IC50 (SEM cells; MLL-AF9, 168 h, Table 4): 0.0109 µM
- IC50 (RS4-11; 168 h, Table 4, RS4-11, B-lineage ALL, MLL/AF4): 0.0088 µM
- IC50 (menin protein [3]): 0.005 µM
